In PubChem BioAssay (NCI):
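1) Cells in 96-well plates. 2) Compound, 48 h, 5 concentrations. 3) Linear interpolation between surrounding doses. 4) Unreached endpoint = highest concentration. TGI: concentration producing complete growth inhibition.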

What was measured:
Experiment in all cases: NCI tumour cell line growth inhibition, 48 h
K-562 leukemia = tested on: K-562 leukemia
HT29 colon = tested on: HT29 colon
SNB-19 CNS = tested on: SNB-19 CNS
HOP-62 NSCLC = tested on: HOP-62 NSCLC
RXF 393 renal = tested on: RXF 393 renal
KM12 colon = tested on: KM12 colon
HS 578T breast = tested on: HS 578T breast
SN12C renal = tested on: SN12C renal
MDA-N = tested on: MDA-N
NCI/ADR-RES ovarian = tested on: NCI/ADR-RES ovarian
NCI-H226 lung = tested on: NCI-H226 lung
NCI-H23 lung = tested on: NCI-H23 lung
HOP-92 NSCLC = tested on: HOP-92 NSCLC
SK-MEL-2 melanoma = tested on: SK-MEL-2 melanoma
786-0 renal = tested on: 786-0 renal
UACC-257 melanoma = tested on: UACC-257 melanoma
CAKI-1 renal = tested on: CAKI-1 renal
MOLT-4 leukemia = tested on: MOLT-4 leukemia
LOX IMVI melanoma = tested on: LOX IMVI melanoma
MALME-3M melanoma = tested on: MALME-3M melanoma
OVCAR-3 ovarian = tested on: OVCAR-3 ovarian
HCC-2998 colon = tested on: HCC-2998 colon
MCF7 breast = tested on: MCF7 breast
OVCAR-8 ovarian = tested on: OVCAR-8 ovarian
SK-OV-3 ovarian = tested on: SK-OV-3 ovarian
SF-295 CNS = tested on: SF-295 CNS
U251 CNS = tested on: U251 CNS
A549 NSCLC = tested on: A549 NSCLC
PC-3 prostate = tested on: PC-3 prostate
OVCAR-4 ovarian = tested on: OVCAR-4 ovarian
NCI-H460 lung = tested on: NCI-H460 lung
MDA-MB-231 breast = tested on: MDA-MB-231 breast
SW-620 colon = tested on: SW-620 colon
OVCAR-5 ovarian = tested on: OVCAR-5 ovarian
RPMI-8226 leukemia = tested on: RPMI-8226 leukemia
SF-539 CNS = tested on: SF-539 CNS
COLO 205 colon = tested on: COLO 205 colon
M14 melanoma = tested on: M14 melanoma
UACC-62 melanoma = tested on: UACC-62 melanoma
UO-31 renal = tested on: UO-31 renal
HCT-116 colon = tested on: HCT-116 colon
EKVX NSCLC = tested on: EKVX NSCLC
MDA-MB-435 = tested on: MDA-MB-435
A498 renal = tested on: A498 renal
SF-268 CNS = tested on: SF-268 CNS
SK-MEL-28 melanoma = tested on: SK-MEL-28 melanoma
NCI-H522 lung = tested on: NCI-H522 lung
HCT-15 colon = tested on: HCT-15 colon
ACHN renal = tested on: ACHN renal
SNB-75 CNS = tested on: SNB-75 CNS
SK-MEL-5 melanoma = tested on: SK-MEL-5 melanoma
TK-10 renal = tested on: TK-10 renal
DU-145 prostate = tested on: DU-145 prostate
CCRF-CEM leukemia = tested on: CCRF-CEM leukemia
BT-549 breast = tested on: BT-549 breast
IGROV1 ovarian = tested on: IGROV1 ovarian
T-47D breast = tested on: T-47D breast
HL-60(TB) leukemia = tested on: HL-60(TB) leukemia

CC(=O)NC1C(OCc2ccccc2)OC(CO)C(O)C1OCC(=O)N1CCCC1C(=O)N[C@@H](CCC(=O)NCCNCCNc1c2ccccc2nc2cccc([N+](=O)[O-])c12)C(N)=O (stereo partly drawn)
TGI (K-562 leukemia): > 100 µM
TGI (HT29 colon): 9.02 µM
TGI (SNB-19 CNS): 26.1 µM
TGI (HOP-62 NSCLC): 11.7 µM
TGI (RXF 393 renal): 6.58 µM
TGI (KM12 colon): 15.6 µM
TGI (HS 578T breast): 23.2 µM
TGI (SN12C renal): 10.6 µM
TGI (MDA-N): 6.17 µM
TGI (NCI/ADR-RES ovarian): 33.5 µM
TGI (NCI-H226 lung): 33.8 µM
TGI (NCI-H23 lung): 10.6 µM
TGI (HOP-92 NSCLC): 5.61 µM
TGI (SK-MEL-2 melanoma): 10.8 µM
TGI (786-0 renal): 9.17 µM
TGI (UACC-257 melanoma): 15.6 µM
TGI (CAKI-1 renal): 16.5 µM
TGI (MOLT-4 leukemia): > 100 µM
TGI (LOX IMVI melanoma): 20.1 µM
TGI (MALME-3M melanoma): 7.35 µM
TGI (OVCAR-3 ovarian): 20.4 µM
TGI (HCC-2998 colon): 8.46 µM
TGI (MCF7 breast): 19.9 µM
TGI (OVCAR-8 ovarian): 15.4 µM
TGI (SK-OV-3 ovarian): 83.3 µM
TGI (SF-295 CNS): 28.6 µM
TGI (U251 CNS): 12.4 µM
TGI (A549 NSCLC): 9.83 µM
TGI (PC-3 prostate): 13.7 µM
TGI (OVCAR-4 ovarian): 14.1 µM
TGI (NCI-H460 lung): 6.63 µM
TGI (MDA-MB-231 breast): 9.03 µM
TGI (SW-620 colon): 24.5 µM
TGI (OVCAR-5 ovarian): 23.1 µM
TGI (RPMI-8226 leukemia): 3.29 µM
TGI (SF-539 CNS): 10.4 µM
TGI (COLO 205 colon): 4.97 µM
TGI (M14 melanoma): 6.4 µM
TGI (UACC-62 melanoma): 15.5 µM
TGI (UO-31 renal): 14.8 µM
TGI (HCT-116 colon): 5.26 µM
TGI (EKVX NSCLC): 26.6 µM
TGI (MDA-MB-435): 5.63 µM
TGI (A498 renal): 9.21 µM
TGI (SF-268 CNS): 25.1 µM
TGI (SK-MEL-28 melanoma): 18.2 µM
TGI (NCI-H522 lung): 3.96 µM
TGI (HCT-15 colon): 11.8 µM
TGI (ACHN renal): 15.3 µM
TGI (SNB-75 CNS): 24.8 µM
TGI (SK-MEL-5 melanoma): 3.38 µM
TGI (TK-10 renal): 21.4 µM
TGI (DU-145 prostate): > 21.2 µM
TGI (CCRF-CEM leukemia): 6.22 µM
TGI (BT-549 breast): 18.9 µM
TGI (IGROV1 ovarian): 14.5 µM
TGI (T-47D breast): 93.6 µM
TGI (HL-60(TB) leukemia): > 39.5 µM
